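Tested at 5 concentrations; 48 h exposure; 96-well plates; endpoints linearly interpolated, else capped at highest concentration. Here, GI50 denotes the concentration required for 50% inhibition of growth.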 Activity calls are given as the source filed them. Cut-off read from the data, not from the text of the source: active = GI50 up to about 1.1 µM and inactive = higher.
Key:
Assay in all cases: inhibition of tumour cell growth, NCI panel, 48 h
NCI-H226 = tested on: NCI-H226
PC-3 = tested on: PC-3
T47D = tested on: T47D
MCF7 = tested on: MCF7
IGROV-1 = tested on: IGROV-1
SW-620 = tested on: SW-620
Malme-3M = tested on: Malme-3M
U-251 = tested on: U-251
MDA-MB-435 = tested on: MDA-MB-435
HOP-62 = tested on: HOP-62
LOX IMVI = tested on: LOX IMVI
SNB-19 = tested on: SNB-19
MDA-N = tested on: MDA-N
NCI-H460 = tested on: NCI-H460
A498 = tested on: A498
SK-MEL-28 = tested on: SK-MEL-28
SN12C = tested on: SN12C
ACHN = tested on: ACHN
HCC 2998 = tested on: HCC 2998
M14 = tested on: M14

Row | Structure (SMILES) | GI50 (NCI-H226) | GI50 (PC-3) | GI50 (T47D) | GI50 (MCF7) | GI50 (IGROV-1) | GI50 (SW-620) | GI50 (Malme-3M) | GI50 (U-251) | GI50 (MDA-MB-435) | GI50 (HOP-62) | GI50 (LOX IMVI) | GI50 (SNB-19) | GI50 (MDA-N) | GI50 (NCI-H460) | GI50 (A498) | GI50 (SK-MEL-28) | GI50 (SN12C) | GI50 (ACHN) | GI50 (HCC 2998) | GI50 (M14)
1 | O=C(O)c1ccc(NCc2nc3cc4ccccc4cc3[nH]2)cc1 | > 100 µM (inactive) | > 100 µM (inactive) | > 100 µM (inactive) | 2.81 µM (inactive) | > 100 µM (inactive) | > 100 µM (inactive) | 0.0462 µM (active) | > 100 µM (inactive) | > 100 µM (inactive) | > 100 µM (inactive) | > 100 µM (inactive) | > 100 µM (inactive) | > 100 µM (inactive) | > 100 µM (inactive) | > 100 µM (inactive) | 5.21 µM (inactive) | > 88.5 µM (inactive) | > 100 µM (inactive) | 87.9 µM (inactive) | > 100 µM (inactive)
2 | COc1cc(C(=O)NC2CCc3cc(OC)c(OC)c(OC)c3-c3ccc(OC)c(=O)cc32)cc(OC)c1OC (stereo not given) | 0.444 µM (active) | 0.0807 µM (active) | 18.8 µM (inactive) | < 0.0176 µM (active) | 0.0891 µM (active) | 0.0521 µM (active) | 0.141 µM (active) | 0.0555 µM (active) | 0.0292 µM (active) | 0.471 µM (active) | 0.0424 µM (active) | 0.138 µM (active) | 0.0202 µM (active) | 0.143 µM (active) | 0.274 µM (active) | 0.192 µM (active) | 0.199 µM (active) | 2.65 µM (inactive) | 0.0776 µM (active) | 0.202 µM (active)
3 | ClCCCSSCCCCl | > 79.4 µM (inactive) | 24.3 µM (inactive) | > 100 µM (inactive) | 30.3 µM (inactive) | 33 µM (inactive) | 27.7 µM (inactive) | 32.3 µM (inactive) | 42 µM (inactive) | 24.3 µM (inactive) | 38.7 µM (inactive) | 27.2 µM (inactive) | > 100 µM (inactive) | 19.9 µM (inactive) | 35.6 µM (inactive) | 38.7 µM (inactive) | 45 µM (inactive) | 29.4 µM (inactive) | 43.8 µM (inactive) | 36.1 µM (inactive) | 38.4 µM (inactive)
4 | OC1[C@@H]2[C@@H](O)[C@H](O)[C@@H](O)N2C[C@@H]1O (stereo not given in full) | > 100 µM (inactive) | > 100 µM (inactive) | > 100 µM (inactive) | > 100 µM (inactive) | > 100 µM (inactive) | > 100 µM (inactive) | > 100 µM (inactive) | > 100 µM (inactive) | > 100 µM (inactive) | > 100 µM (inactive) | > 100 µM (inactive) | > 100 µM (inactive) | > 100 µM (inactive) | > 100 µM (inactive) | > 100 µM (inactive) | > 100 µM (inactive) | > 100 µM (inactive) | > 100 µM (inactive) | > 100 µM (inactive) | > 100 µM (inactive)
5 | COC(=O)c1sc2ncc3c(c2c1N)CCCCCC3 | > 100 µM (inactive) | > 100 µM (inactive) | > 100 µM (inactive) | > 100 µM (inactive) | > 100 µM (inactive) | > 100 µM (inactive) | > 100 µM (inactive) | > 100 µM (inactive) | > 100 µM (inactive) | 53.6 µM (inactive) | > 100 µM (inactive) | > 100 µM (inactive) | > 100 µM (inactive) | > 100 µM (inactive) | > 100 µM (inactive) | > 100 µM (inactive) | > 100 µM (inactive) | > 100 µM (inactive) | > 100 µM (inactive) | > 100 µM (inactive)
6 | COc1ccc(/C=N/c2c(O)ccc3ccccc23)cc1OC | > 100 µM (inactive) | > 100 µM (inactive) | 84.5 µM (inactive) | > 100 µM (inactive) | 2.81 µM (inactive) | > 100 µM (inactive) | 14.5 µM (inactive) | > 100 µM (inactive) | 18.9 µM (inactive) | 92 µM (inactive) | 46.8 µM (inactive) | > 100 µM (inactive) | 17.1 µM (inactive) | 80.9 µM (inactive) | > 100 µM (inactive) | > 100 µM (inactive) | > 100 µM (inactive) | > 100 µM (inactive) | > 100 µM (inactive) | 74.5 µM (inactive)
7 | O=c1c2nc3ccccc3c(=O)n2ncn1-c1ccccc1Cl | > 100 µM (inactive) | > 100 µM (inactive) | > 100 µM (inactive) | > 100 µM (inactive) | > 100 µM (inactive) | > 100 µM (inactive) | > 100 µM (inactive) | > 100 µM (inactive) | > 100 µM (inactive) | > 100 µM (inactive) | > 100 µM (inactive) | > 100 µM (inactive) | > 100 µM (inactive) | > 100 µM (inactive) | > 100 µM (inactive) | > 100 µM (inactive) | > 100 µM (inactive) | > 100 µM (inactive) | > 100 µM (inactive) | > 100 µM (inactive)
8 | CCOC(=O)c1sc2c(c1OC(=O)c1cccs1)c(=O)n(-c1ccccc1)c(=S)n2-c1ccccc1 | 20.5 µM (inactive) | 12 µM (inactive) | 23.5 µM (inactive) | 14.9 µM (inactive) | 12.2 µM (inactive) | 19.3 µM (inactive) | 12.9 µM (inactive) | 12.2 µM (inactive) | 11.5 µM (inactive) | 21.1 µM (inactive) | 15.7 µM (inactive) | 28.6 µM (inactive) | 30.5 µM (inactive) | 3.63 µM (inactive) | 6.4 µM (inactive) | 11.8 µM (inactive) | 18.3 µM (inactive) | 15.8 µM (inactive) | 16.6 µM (inactive) | 12.4 µM (inactive)
9 | COc1ccc(/C=C(/C)[N+](=O)[O-])cc1 | 21.1 µM (inactive) | 2.16 µM (inactive) | 3.72 µM (inactive) | 1.22 µM (inactive) | 2.13 µM (inactive) | 2.01 µM (inactive) | 2.11 µM (inactive) | 1.62 µM (inactive) | 1.95 µM (inactive) | 1.86 µM (inactive) | 1.48 µM (inactive) | 5.86 µM (inactive) | 2.05 µM (inactive) | 2.18 µM (inactive) | 2.7 µM (inactive) | 2.65 µM (inactive) | 2.1 µM (inactive) | 1.99 µM (inactive) | 1.77 µM (inactive) | 3.18 µM (inactive)
10 | CC1=NN(C(=O)CC(=O)Nc2ccccc2C)C(=O)C1/N=N\c1ccc(S(=O)(=O)c2ccc(/N=N/C3C(=O)N(C(=O)CC(=O)Nc4ccccc4C)N=C3C)cc2)cc1 (stereo not given) | > 100 µM (inactive) | > 100 µM (inactive) | > 100 µM (inactive) | > 100 µM (inactive) | 68.9 µM (inactive) | > 10 µM (inactive) | > 100 µM (inactive) | 67.9 µM (inactive) | > 100 µM (inactive) | > 100 µM (inactive) | > 100 µM (inactive) | > 100 µM (inactive) | > 100 µM (inactive) | > 100 µM (inactive) | > 100 µM (inactive) | > 100 µM (inactive) | > 100 µM (inactive) | > 100 µM (inactive) | > 100 µM (inactive) | > 100 µM (inactive)
11 | O=c1oc2ccccc2cc1-c1csc(Nc2cc(Cl)cc(Cl)c2)n1 | > 35.8 µM (inactive) | > 100 µM (inactive) | 15.5 µM (inactive) | 17.4 µM (inactive) | 14 µM (inactive) | 11.9 µM (inactive) | 11.7 µM (inactive) | 2.39 µM (inactive) | 4.9 µM (inactive) | 3.85 µM (inactive) | 2.82 µM (inactive) | > 24.2 µM (inactive) | 29.2 µM (inactive) | 6.64 µM (inactive) | 4.94 µM (inactive) | 9.51 µM (inactive) | 6.31 µM (inactive) | 1.9 µM (inactive) | > 100 µM (inactive) | > 35.5 µM (inactive)
12 | COC(=O)C1Cc2ccc3c(c2C1=O)CCCC3 (stereo not given) | 92.9 µM (inactive) | 26.2 µM (inactive) | 23.2 µM (inactive) | 73.6 µM (inactive) | > 100 µM (inactive) | 86.5 µM (inactive) | > 100 µM (inactive) | 61.9 µM (inactive) | > 100 µM (inactive) | 89.7 µM (inactive) | 38.1 µM (inactive) | > 100 µM (inactive) | > 100 µM (inactive) | > 100 µM (inactive) | > 100 µM (inactive) | > 100 µM (inactive) | > 100 µM (inactive) | > 100 µM (inactive) | > 100 µM (inactive) | > 100 µM (inactive)
13 | C#CC(C)(C)OC(=O)C(=[N+]=[N-])C(C)=O | > 10 µM (inactive) | > 10 µM (inactive) | > 10 µM (inactive) | > 10 µM (inactive) | > 10 µM (inactive) | > 10 µM (inactive) | > 10 µM (inactive) | > 10 µM (inactive) | > 10 µM (inactive) | > 10 µM (inactive) | > 10 µM (inactive) | > 10 µM (inactive) | > 10 µM (inactive) | > 10 µM (inactive) | > 10 µM (inactive) | > 10 µM (inactive) | > 10 µM (inactive) | > 10 µM (inactive) | > 10 µM (inactive) | > 10 µM (inactive)
14 | O=[N+]([O-])c1ccc(/N=N\c2c(O)c(S(=O)(=O)O)cc3cc(S(=O)(=O)O)ccc23)cc1 | > 100 µM (inactive) | > 100 µM (inactive) | > 100 µM (inactive) | > 100 µM (inactive) | > 100 µM (inactive) | > 100 µM (inactive) | > 100 µM (inactive) | > 100 µM (inactive) | > 100 µM (inactive) | 88.5 µM (inactive) | > 100 µM (inactive) | > 100 µM (inactive) | > 100 µM (inactive) | > 100 µM (inactive) | > 100 µM (inactive) | > 100 µM (inactive) | > 100 µM (inactive) | > 100 µM (inactive) | > 100 µM (inactive) | > 100 µM (inactive)

Reference: ChEMBL document CHEMBL1201862, “PubChem BioAssay data set” (2004)
